Assay results taken from US20140377289A1, “Metallodrugs Having Improved Pharmacological Properties, and Methods of Manufacture and Use Thereof” (MetalloPharm, LLC, priority 2011, published 2014).

What was measured:
[1] = test system: HCV RNA replicon in ET (luc-ubi-neo/ET) Huh7 cells; settings: read-out: antiviral IC50; 72 h, replicon-derived Luc activity
[2] = test system: ET (luc-ubi-neo/ET) Huh7 human hepatoma cell line; settings: read-out: cytotoxicity TC50; 72 h, CytoTox-1 colorimetric assay
S. aureus sortase A = S. aureus sortase A (Staphylococcus aureus, UniProt Q2FV99); type: biochemical; settings: for activity for catalyst concentration of 1 μM: catalyst concentration 1 μM
Method: Apparent binding affinities and rates of inactivation for S. aureus sortase A by several metallopeptide derivatives were evaluated. […]

S. aureus sortase A, sequence (Q2FV99 whole entry): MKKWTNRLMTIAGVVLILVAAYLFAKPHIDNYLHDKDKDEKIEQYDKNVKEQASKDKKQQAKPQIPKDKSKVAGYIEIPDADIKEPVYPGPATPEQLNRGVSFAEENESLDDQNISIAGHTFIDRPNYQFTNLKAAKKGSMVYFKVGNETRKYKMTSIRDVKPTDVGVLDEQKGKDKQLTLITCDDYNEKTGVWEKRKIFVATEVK

Row | Substance | IC50 [1] [µM] | CC50 [2] [µM] | IC50 (S. aureus sortase A) [µM] | activity for catalyst concentration of 1 μM (S. aureus sortase A)
1 | Cu-GGHGKYKETDLLILFKDDYFAKKNEERK | 0.55 | > 100 |  | 
2 | Cu-GGHGKYKETDLLILFKDDYFAKKNEERKKDEL | 0.75 | > 50 |  | 
3 | Cu-GGHGLPET |  |  | > 100 | 0.027
4 | Cu-GGHGLPETG |  |  | > 100 | 0.012
5 | Cu-GGHGYrFK | 1.38 | > 100 |  | 
6 | Cu-GGHGYrFKGGGKDEL | 0.91 | > 100 |  | 
7 | Cu-GGHGYrFKGGGYGRKKRRQRRR | 0.95 | 96 |  | 
8 | Cu-GGHKYKETDLLILFKDDYFAKKNEERKYGRKKRRQRRR | 0.83 | > 50 |  | 
9 | Cu-GGHLPETG |  |  | > 100 | 0.017
10 | Cu-GGHYrFKGGGYGRKKRRQRRR | 1.85 | 84 |  | 
